{
  "source": "paper PMC7725443",
  "about": "(Advanced healthcare materials, 2020)",
  "tested_on": "OVSAHO cells",
  "test": "Cell viability of OVSAHO cells",
  "type": "cell-based, human",
  "conditions": "50 nM and 100 nM, 24 h",
  "data": [
    {"compound": "CC(C)C[C@H](NC(=O)[C@H](Cc1ccccc1)NC(=O)c1cnccn1)B(O)O", "note": "[BTZ, bortezomib]", "values": [
      {"measurement": "cell viability of OVSAHO cells treated with solely BTZ", "value": "cell compatible"}
    ]}
  ]
}
